Measurements: PMC9962452, “Modified Linear Peptides Effectively Silence STAT-3 in Breast Cancer and Ovarian Cancer Cell Lines” (Pharmaceutics, 2023)

Experiments:
[1] = tested on: MDA-MB-231 cells; experiment: Confocal microscopy of siRNA internalization; format: cell-based; details: N/P ratio 40, 24 h, Alexa Fluor 488-labeled siRNA, comparable to Lipofectamine 2000
Procedure: In order to visualize and locate the internalized siRNA, samples for confocal microscopy were prepared using MDA-MB-231 cells, adopting the protocol described previously by our lab. Briefly, sterile 6-well plates were used, and sterile coverslips were placed at the bottom of each well. MDA-MB-231 cells suspended in 2 mL of media were seeded in each well, and the plates were incubated in an incubator at standard growth conditions. After incubation, the cells were exposed to MLPs-fluorescent-labeled siRNA complexes at a N/P ratio of 40 using the same method described above for the FACS assay. The treated cells were again incubated for 24 h to allow for the internalization of siRNA. After overnight incubation, the media was drained from each well, and the cells were rigorously washed with HBSS three times, followed by fixation with 3.7% formaldehyde in the HBSS solution. Following fixation, the cells were treated with Texas Red for 1 h at room temperature to stain the cell membrane. After 1 h of staining with Texas Red, the cells were stained with DAPI overnight at room temperature in a dark environment to stain the nuclei. Following successful nuclei staining, the coverslips containing fixed stained cells were transferred to slides for viewing under a high-definition confocal microscope (Nikon A1 R). […]

[2] = tested on: scrambled siRNA; experiment: Gel retardation / gel shifting assay, binding of peptides to siRNA; details: 1% agarose, ethidium bromide, N/P 0 to 60, 30 min room temperature, bands quantified with Image Lab, value is an N/P ratio
Procedure: In addition to the SYBR green dye exclusion assay described above, the binding affinity of the peptides to siRNA was also determined using the gel retardation/gel shifting assay. Briefly, the MLPs-siRNA complexes were prepared at different N to P ratios ranging from 0 to 60. The N/P ratio of zero represents free siRNA. The tubes containing complexes were incubated at room temperature for 30 min for complete complex formation. After this incubation time, the complexes were mixed with gel-loading dye. Each of the samples was loaded into the wells of 1% agarose gel with (1 μg/mL) ethidium bromide, and […] and 70 Volts were used to run the gel for 20 min. After the run, the gels were visualized under a Bio-Rad imager. The intensity of the bands was quantified by Image Lab software.
To support the data obtained by the SYBR green dye exclusion assay, the binding affinity of the MLPs with siRNA was also determined by the gel retardation assay (Figure 2). For this purpose, the MLPs-siRNA complexes were made in microtubes using purified normal saline at different N to P ratios ranging from 0 to 60. The N to P ratio of 0 represents siRNA only, with no peptide. The solutions in microtubes were allowed to stay at room temperature for 30 min to confer complete complex formation via electrostatic interactions between the MLPs and siRNA. […]

[3] = tested on: scrambled siRNA; experiment: SYBR green dye exclusion assay, binding of peptides to siRNA; details: scrambled siRNA in normal saline, N/P 0.05 to 40, 30 min room temperature, triplicates, sigmoidal model, value is an N/P ratio
Procedure: As previously reported, the binding affinity of selected peptides to siRNA was investigated using the SYBR green exclusion assay. The MLPs and scrambled siRNA were mixed in normal saline (in triplicates) with different N/P ratios ranging from 0.05 to 40. The mixture was incubated at room temperature for 30 min to ensure complete complexation of peptides and siRNA. After the incubation time, the complexes were transferred to a black 96-well plate. SYBR green dye solution for this assay was made by diluting 1 part of SYBR green dye with 10,000 parts of purified water. Then, 200 µL of the freshly made SYBR green dye dilution was added to each siRNA complex in the black 96-well plate. The plate was covered with aluminum foil before reading in a micro-plate reader that detected the fluorescent signal (485 nm excitation and 527 nm emission). […] The percentage of the siRNA complexed with the peptide was determined using the following equation: % siRNA bond to peptide=100−Fluorescence signal for complexed siRNA /Fluorescence signal for free siRNA×100 % siRNA bound to the peptide was plotted against a range of nitrogen to phosphate (N/P) ratios used in the experiment, and BR50 (the N/P ratio of the complex required to bind 50% of siRNA) was determined using a sigmoidal model. […]

[4] = tested on: STAT3 in MDA-MB-231 cells; experiment: Western blot of STAT3 protein after STAT3 siRNA delivery, MDA-MB-231; format: cell-based; details: n = 3
Procedure: The Western blot assay was used to evaluate the expression of STAT-3 protein in MDA-MB-231 cells using the protocol adopted from our previous study. Briefly, the cells were grown in T25 flasks and treated with MLP-siRNA complexes at N/P ratios of 20 and 40 for 48 h. Following treatment, the cells were harvested as pellets in microtubes and were lysed using RIPA lysis buffer supplanted with a protease inhibitor. The lysate was centrifuged for 15 min at 12,000 rpm at 4 °C to allow the separation of all cell proteins. The supernatant containing all cell proteins was separated in pre-cooled microtubes and the protein was quantified using the standard […].
Following the quantification of protein, the samples representing 15 µg of protein were mixed with gel loading dye and loaded in the wells of pre-formed gels and the electrophoresis was carried out at 200 V for 40 min. After the complete run, the gels were transferred to the Western blotting membrane using the Trans-Blot® machine. After successfully transferring gels onto the membrane, the membrane was blocked in 5% Bovine Serum Albumin in TBS-T buffer consisting of 1X tris-buffered saline and 0.1% Tween 20. […] Finally, the membrane was visualized under the Bio-Rad Imager, and the bands were quantified using Image Lab software. […]

BC50 (from quantified gel bands) [2]: 0.9001 | BC50 ± SD (N/P ratio required for 50% binding of siRNA) [3]: 0.963 ± 0.34
Substance: AcNH-K(oleyl)-βA-βA-W4-βA-βA-R4-CONH2 [MLP4, oleic acid conjugated peptide, oleyl chain on the Lys side chain]
Internalization of siRNA seen by confocal microscopy [1]: significant internalization of siRNA in the cytosol | Downregulation of STAT3 protein ([4]; N/P ratio 20, 48 h): > 90% | Downregulation of STAT3 protein ([4]; N/P ratio 40, 48 h, GAPDH housekeeping): > 90%
